Experimental data reported in publication doi:10.1101/2024.08.19.608619, “Discovery of potent SARS-CoV-2 nsp3 macrodomain inhibitors uncovers lack of translation to cellular antiviral response” (bioRxiv, 2024).
“And” between values parts separate entries of the source, which are not always exact repeats. Identical values can stand only once. Like-named read-outs stand apart in the source and are kept apart here.

Experiments:
[1] = Hepatic microsomal stability, MLM; format: in vitro ADME; settings: In vitro mouse liver microsomal stability; for perc_remaining_no_cofactor: no cofactor
[2] = target: T1, human CHRM2 (M2) (Homo sapiens, UniProt P08172); assay: Eurofins CEREP panel, M2; format: binding; settings: M2 (h) (antagonist radioligand), test compound concentration 10 uM
T1 construct: purchased Eurofins Cerep (SafetyScreen44), recognised from the panel format
T1 sequence (P08172 1-466): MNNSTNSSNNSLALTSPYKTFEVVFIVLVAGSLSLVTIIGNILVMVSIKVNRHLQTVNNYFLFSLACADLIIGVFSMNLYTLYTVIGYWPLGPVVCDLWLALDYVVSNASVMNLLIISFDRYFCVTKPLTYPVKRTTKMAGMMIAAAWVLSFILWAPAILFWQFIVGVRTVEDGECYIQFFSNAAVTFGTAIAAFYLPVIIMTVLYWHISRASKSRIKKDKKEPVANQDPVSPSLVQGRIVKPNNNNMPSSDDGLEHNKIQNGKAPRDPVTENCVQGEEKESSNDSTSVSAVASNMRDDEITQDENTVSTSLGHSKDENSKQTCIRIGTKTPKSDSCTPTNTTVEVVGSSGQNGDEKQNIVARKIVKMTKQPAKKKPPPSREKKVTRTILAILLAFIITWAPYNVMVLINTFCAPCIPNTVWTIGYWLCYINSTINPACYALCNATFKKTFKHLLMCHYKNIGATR

[3] = target: T2, beta1 (h) (Homo sapiens, UniProt P08588); assay: In vitro CEREP profiling, beta1 (h) (agonist radioligand); format: binding; settings: test compound 10 uM
T2 construct: purchased Eurofins Cerep (SafetyScreen44), recognised from the panel format
Excerpt: (§1) Supplement media-1.zip/Safety_Panel_Profile.csv, table | column: perc_inhibition

[4] = target: T3, M3 (h) (Homo sapiens, UniProt P20309); assay: In vitro CEREP profiling, M3 (h) (antagonist radioligand); format: binding; settings: test compound concentration 10 uM
T3 construct: purchased Eurofins Cerep (SafetyScreen44), recognised from the panel format
Excerpt: as §1

[5] = tested on: AR(h); assay: In vitro CEREP profiling, AR(h) (agonist radioligand); format: binding, human; settings: test compound concentration 10 uM
Excerpt: as §1

[6] = In vitro rat SD liver microsomal stability; format: in vitro ADME
Excerpt: (§2) Supplement media-1.zip/Hepatic_Microsomal_Stability.csv, table | column: clint; t_half

[7] = target: hERG (Homo sapiens, UniProt Q12809); assay: In vitro hERG cardiotoxocity; settings: for perc_inhibition_top_conc: at top test concentration 30 uM; for IC50: top test concentration 30 uM
Excerpt: Supplement media-1.zip/Cardiotoxicity.csv, table | column: ic50; perc_inhibition_top_conc

[8] = target: T4, D2S (h) (Homo sapiens, UniProt P14416); assay: In vitro CEREP profiling, D2S (h) (agonist radioligand); format: binding; settings: test compound 10 uM
T4 construct: purchased Eurofins Cerep (SafetyScreen44), recognised from the panel format
Excerpt: as §1

[9] = In vitro dog liver microsomal stability; format: in vitro ADME
Excerpt: as §2

[10] = target: NaV1.5 (Homo sapiens, UniProt Q14524); assay: In vitro NaV1.5 cardiotoxicity; settings: top test concentration 30 uM
Excerpt: Supplement media-1.zip/Cardiotoxicity.csv, table | column: ic50_rest_state; ic50_use_dep_block; perc_inhibition_rest_state; perc_inhibition_use_dep_block

[11] = target: CDK6/cyclinD3(h) (Homo sapiens, UniProt Q00534); assay: biochemical; parameters: In vitro kinase panel profiling, per cent remaining kinase activity at 10 uM; settings: atp_concentration=200, read-out: % of control remaining
Excerpt: (§3) We derisk potential for off-target activity by profiling the compound in a CEREP panel, a standard secondary pharmacology assessment, as well as a kinase panel to derisk a potential hinge-binding motif in our leads, and a PARP panel to derisk activity against human […]. Reassuringly, the compounds are selective, with the only off-targets being moderate human CHRM2 and KOR receptors activity associated with ASAP-0011198.

[12] = target: T5, MAPKAP-K2(h) (Homo sapiens, UniProt P49137); assay: biochemical; parameters: In vitro kinase panel profiling, per cent remaining kinase activity at 10 uM; settings: atp_concentration=90, read-out: % of control remaining
T5 construct: gene MAPKAPK2
Excerpt: as §3

[13] = target: T6, PI3 Kinase (p110α/p85α)(h) (Homo sapiens, UniProt P42336); assay: biochemical; parameters: In vitro kinase panel profiling, per cent remaining kinase activity at 10 uM; settings: atp_concentration=200, read-out: % of control remaining
T6 construct: gene PIK3CA
Excerpt: as §3

[14] = target: T7, PI3 Kinase (p110β/p85α)(h) (Homo sapiens, UniProt P42338); assay: biochemical; parameters: In vitro kinase panel profiling, per cent remaining kinase activity at 10 uM; settings: atp_concentration=200, read-out: % of control remaining
T7 construct: gene PIK3CB
Excerpt: as §3

[15] = target: T8, PKCα(h) (Homo sapiens, UniProt P17252); assay: biochemical; parameters: In vitro kinase panel profiling, per cent remaining kinase activity at 10 uM; settings: atp_concentration=45, read-out: % of control remaining
T8 construct: gene PRKCA
Excerpt: as §3

[16] = target: T9, p70S6K(h) (Homo sapiens, UniProt P23443); assay: biochemical; parameters: In vitro kinase panel profiling, per cent remaining kinase activity at 10 uM; settings: atp_concentration=15, read-out: % of control remaining
T9 construct: gene RPS6KB1
Excerpt: as §3

[17] = Permeability Papp (AB) MDR1/MDCKII; settings: for papp_b_to_a_mean: B to A; for perc_recovery_a_to_b_mean / perc_recovery_a_to_b_inhibitor_mean: recovery A to B; for perc_recovery_b_to_a_mean / perc_recovery_b_to_a_inhibitor_mean: recovery B to A; for perc_recovery_a_to_b_inhibitor_mean / perc_recovery_b_to_a_inhibitor_mean: MDR1-MDCKII
[18] = NaV1.5, rest state, read-out: ic50_rest_state
[19] = NaV1.5, use dependent block, read-out: ic50_use_dep_block
[20] = In vitro MDR1-MDCKII permeability, no inhibitor
[21] = In vitro MDR1-MDCKII permeability, A to B, mean
[22] = In vitro MDR1-MDCKII permeability, mean
[23] = read-out: perc_inhibition (% inhibition of the binding of a ligand specific for each target)

T5 sequence (P49137 whole entry): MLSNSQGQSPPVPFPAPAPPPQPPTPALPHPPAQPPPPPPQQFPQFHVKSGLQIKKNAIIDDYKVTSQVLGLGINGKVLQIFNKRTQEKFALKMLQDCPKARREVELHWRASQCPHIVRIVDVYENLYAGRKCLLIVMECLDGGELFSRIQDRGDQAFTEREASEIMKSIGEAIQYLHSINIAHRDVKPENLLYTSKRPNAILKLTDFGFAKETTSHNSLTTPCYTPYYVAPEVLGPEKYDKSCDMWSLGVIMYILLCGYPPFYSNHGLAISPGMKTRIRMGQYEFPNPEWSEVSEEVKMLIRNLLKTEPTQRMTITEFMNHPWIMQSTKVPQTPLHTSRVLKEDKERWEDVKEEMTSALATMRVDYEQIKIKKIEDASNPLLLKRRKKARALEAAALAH
T9 sequence (P23443 whole entry): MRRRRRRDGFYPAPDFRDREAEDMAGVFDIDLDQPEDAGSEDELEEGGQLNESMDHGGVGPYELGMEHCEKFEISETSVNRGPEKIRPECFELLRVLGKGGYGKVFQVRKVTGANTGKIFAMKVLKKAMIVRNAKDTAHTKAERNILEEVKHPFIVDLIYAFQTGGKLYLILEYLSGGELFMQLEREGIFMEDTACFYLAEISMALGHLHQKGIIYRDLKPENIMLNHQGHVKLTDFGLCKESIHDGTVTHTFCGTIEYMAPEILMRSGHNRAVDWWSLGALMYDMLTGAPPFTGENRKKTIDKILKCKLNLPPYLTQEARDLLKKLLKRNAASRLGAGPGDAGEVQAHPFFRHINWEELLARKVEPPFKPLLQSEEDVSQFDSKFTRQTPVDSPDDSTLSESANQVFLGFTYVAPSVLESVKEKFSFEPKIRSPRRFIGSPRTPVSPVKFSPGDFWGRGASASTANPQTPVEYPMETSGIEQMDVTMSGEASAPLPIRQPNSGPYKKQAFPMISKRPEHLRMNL
Chain of CDK6/cyclinD3(h) (Q00534 whole entry): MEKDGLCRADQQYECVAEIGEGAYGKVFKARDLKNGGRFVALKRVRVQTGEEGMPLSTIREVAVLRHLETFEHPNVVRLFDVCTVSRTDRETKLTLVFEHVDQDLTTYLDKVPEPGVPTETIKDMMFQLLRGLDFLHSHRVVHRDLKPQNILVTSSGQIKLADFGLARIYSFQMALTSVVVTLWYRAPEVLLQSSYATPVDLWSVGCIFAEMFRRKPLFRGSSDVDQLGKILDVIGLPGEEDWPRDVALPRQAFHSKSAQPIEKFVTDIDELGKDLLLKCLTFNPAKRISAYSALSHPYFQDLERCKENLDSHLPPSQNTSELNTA
Chain of CDK6/cyclinD3(h) (P30281 whole entry partner): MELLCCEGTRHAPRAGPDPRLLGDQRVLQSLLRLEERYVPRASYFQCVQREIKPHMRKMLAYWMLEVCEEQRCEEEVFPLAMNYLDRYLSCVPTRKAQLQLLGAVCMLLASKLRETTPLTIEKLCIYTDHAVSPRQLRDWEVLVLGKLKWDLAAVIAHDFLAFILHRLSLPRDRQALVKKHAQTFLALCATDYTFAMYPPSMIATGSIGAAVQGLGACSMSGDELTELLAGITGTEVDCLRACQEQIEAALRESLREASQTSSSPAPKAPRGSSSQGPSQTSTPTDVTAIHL
T6 sequence (P42336 whole entry): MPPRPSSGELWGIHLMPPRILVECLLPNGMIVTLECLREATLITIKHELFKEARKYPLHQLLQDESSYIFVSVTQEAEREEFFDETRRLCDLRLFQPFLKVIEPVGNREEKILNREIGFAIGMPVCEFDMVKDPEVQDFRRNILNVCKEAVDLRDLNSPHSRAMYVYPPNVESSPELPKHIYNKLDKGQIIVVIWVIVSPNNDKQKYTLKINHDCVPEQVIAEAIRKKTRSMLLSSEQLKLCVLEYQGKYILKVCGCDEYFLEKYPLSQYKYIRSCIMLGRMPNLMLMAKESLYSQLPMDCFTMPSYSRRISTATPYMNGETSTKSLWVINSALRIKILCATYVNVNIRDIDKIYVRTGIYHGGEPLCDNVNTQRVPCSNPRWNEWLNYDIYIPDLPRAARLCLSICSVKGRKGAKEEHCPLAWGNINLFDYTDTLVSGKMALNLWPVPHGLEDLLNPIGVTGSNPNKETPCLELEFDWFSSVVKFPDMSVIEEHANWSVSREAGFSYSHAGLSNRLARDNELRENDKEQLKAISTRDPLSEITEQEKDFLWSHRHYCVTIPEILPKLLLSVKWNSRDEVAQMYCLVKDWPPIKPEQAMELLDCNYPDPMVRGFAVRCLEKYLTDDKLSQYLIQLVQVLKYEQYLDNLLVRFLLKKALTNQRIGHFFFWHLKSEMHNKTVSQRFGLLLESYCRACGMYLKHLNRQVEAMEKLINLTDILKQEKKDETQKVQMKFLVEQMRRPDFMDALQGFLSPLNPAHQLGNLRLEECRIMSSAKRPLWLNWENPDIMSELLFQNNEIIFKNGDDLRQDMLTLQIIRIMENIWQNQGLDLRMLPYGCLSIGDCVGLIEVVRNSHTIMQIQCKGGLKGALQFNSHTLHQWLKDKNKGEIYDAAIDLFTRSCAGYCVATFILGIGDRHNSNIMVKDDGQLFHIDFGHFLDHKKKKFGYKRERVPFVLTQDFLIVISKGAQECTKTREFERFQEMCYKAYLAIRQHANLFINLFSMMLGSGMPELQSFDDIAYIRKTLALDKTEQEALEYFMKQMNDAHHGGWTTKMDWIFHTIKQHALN
T6 sequence (P27986 whole entry partner): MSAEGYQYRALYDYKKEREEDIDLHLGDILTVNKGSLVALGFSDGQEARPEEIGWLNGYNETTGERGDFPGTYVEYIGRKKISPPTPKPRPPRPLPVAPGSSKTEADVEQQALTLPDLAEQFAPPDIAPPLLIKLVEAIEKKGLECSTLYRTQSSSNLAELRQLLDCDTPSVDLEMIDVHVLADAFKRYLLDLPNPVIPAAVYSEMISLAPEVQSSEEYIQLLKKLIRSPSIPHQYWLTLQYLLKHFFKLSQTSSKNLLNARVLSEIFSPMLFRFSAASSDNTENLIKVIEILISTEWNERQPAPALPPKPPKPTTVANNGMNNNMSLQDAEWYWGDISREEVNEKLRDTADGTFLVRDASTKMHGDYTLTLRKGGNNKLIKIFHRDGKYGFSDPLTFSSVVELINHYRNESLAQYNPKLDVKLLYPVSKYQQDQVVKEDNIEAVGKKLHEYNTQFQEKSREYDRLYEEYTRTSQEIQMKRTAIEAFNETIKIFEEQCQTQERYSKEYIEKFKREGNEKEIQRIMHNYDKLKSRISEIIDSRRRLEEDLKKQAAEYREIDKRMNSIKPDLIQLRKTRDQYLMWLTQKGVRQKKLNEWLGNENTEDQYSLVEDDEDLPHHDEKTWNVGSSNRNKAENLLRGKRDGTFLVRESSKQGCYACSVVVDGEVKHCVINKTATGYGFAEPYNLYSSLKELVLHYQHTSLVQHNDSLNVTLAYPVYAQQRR
T2 sequence (P08588 whole entry): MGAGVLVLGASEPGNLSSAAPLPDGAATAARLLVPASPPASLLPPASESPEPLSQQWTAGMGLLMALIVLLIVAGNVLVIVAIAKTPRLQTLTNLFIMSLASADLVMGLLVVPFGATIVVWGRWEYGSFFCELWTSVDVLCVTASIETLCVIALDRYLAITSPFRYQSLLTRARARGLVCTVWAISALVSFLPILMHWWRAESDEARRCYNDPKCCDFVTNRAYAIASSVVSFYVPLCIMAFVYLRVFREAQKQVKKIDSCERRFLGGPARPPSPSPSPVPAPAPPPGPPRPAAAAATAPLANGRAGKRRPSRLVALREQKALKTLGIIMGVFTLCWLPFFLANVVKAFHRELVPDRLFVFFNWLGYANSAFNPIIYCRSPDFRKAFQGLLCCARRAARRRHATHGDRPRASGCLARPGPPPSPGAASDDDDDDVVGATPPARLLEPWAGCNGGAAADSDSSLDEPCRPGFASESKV
Chain of hERG (Q12809 whole entry): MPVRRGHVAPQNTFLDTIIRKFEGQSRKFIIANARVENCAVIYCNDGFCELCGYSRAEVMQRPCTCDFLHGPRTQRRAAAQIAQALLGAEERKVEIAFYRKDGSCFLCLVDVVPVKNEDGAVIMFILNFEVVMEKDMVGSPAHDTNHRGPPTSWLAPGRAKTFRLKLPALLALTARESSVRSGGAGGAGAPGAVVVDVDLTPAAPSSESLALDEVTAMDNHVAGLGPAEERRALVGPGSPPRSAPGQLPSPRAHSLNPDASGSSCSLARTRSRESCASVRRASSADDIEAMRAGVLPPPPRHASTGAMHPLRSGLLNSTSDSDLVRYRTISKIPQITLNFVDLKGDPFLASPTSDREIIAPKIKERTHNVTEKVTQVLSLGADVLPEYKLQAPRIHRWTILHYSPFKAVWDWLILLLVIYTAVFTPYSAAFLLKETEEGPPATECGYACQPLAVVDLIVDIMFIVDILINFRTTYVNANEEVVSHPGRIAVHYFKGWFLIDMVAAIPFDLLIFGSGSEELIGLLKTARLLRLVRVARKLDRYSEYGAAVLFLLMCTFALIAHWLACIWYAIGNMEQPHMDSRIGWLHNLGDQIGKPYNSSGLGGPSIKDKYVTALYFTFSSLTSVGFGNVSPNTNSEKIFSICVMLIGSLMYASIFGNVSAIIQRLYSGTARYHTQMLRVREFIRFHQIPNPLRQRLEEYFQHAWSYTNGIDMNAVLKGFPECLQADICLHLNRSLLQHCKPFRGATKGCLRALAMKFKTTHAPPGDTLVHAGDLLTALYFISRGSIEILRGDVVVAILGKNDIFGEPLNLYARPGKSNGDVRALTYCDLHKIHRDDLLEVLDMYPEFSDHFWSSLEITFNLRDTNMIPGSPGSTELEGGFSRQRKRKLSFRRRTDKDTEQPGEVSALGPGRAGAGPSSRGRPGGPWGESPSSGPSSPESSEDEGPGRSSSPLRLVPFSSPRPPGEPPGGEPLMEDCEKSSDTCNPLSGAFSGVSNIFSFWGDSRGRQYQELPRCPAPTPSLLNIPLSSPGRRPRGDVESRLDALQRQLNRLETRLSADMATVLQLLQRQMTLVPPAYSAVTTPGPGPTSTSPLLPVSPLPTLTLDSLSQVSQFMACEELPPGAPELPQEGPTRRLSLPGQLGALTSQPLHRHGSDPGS

| Compound | perc_remaining [1] [%] | t_half [1] [min] | perc_remaining_no_cofactor [1] [%] | perc_inhibition (% inhibition of the binding of a ligand specific for each target) [2] [%] | perc_inhibition (% inhibition of the binding of a ligand specific for each target) [3] [%] | perc_inhibition (% inhibition of the binding of a ligand specific for each target) [4] [%] | perc_inhibition (% inhibition of the binding of a ligand specific for each target) [5] [%] | clint [6] [µL/min/mg] | t_half [6] [min] | IC50 [7] [µM] | perc_inhibition (% inhibition of the binding of a ligand specific for each target) [8] [%] | clint [9] [µL/min/mg] | t_half [9] [min] | perc_inhibition_rest_state ([10]; NaV1.5, rest state) [%] | IC50 [10, 18] [µM] | perc_inhibition_use_dep_block ([10]; NaV1.5, use dependent block) [%] | IC50 [10, 19] [µM] | papp_b_to_a_mean [17, 20] | perc_recovery_a_to_b_mean [17, 20] | perc_recovery_b_to_a_mean [17, 20] | further results |
| --- | --- | --- | --- | --- | --- | --- | --- | --- | --- | --- | --- | --- | --- | --- | --- | --- | --- | --- | --- | --- | --- |
| C[C@H](C(=O)O)[C@@H](NC(=O)c1ncnc2[nH]ccc12)c1ccc(Br)cc1 [ASAP-0014722] | 111.226 | 379.672 | 100.245 | -4 | -5 | -9 | 12 | < 5.0 | > 139.0 | > 30 | -1 | < 5.0 | > 139.0 | 18.0 | > 30 | 16.0 | > 30 | 0.274 ×10⁻⁶ cm/s | 89.1% and 77.4% | 87.2% | clint [1]: 4.0 µL/min/mg; perc_inhibition_top_conc [7]: 28.0%; remaining activity at 10 µM ([11]; batch_name=ASAP-0014722-002): 97%; remaining activity at 10 µM ([12]; batch_name=ASAP-0014722-002): 98%; remaining activity at 10 µM ([13]; batch_name=ASAP-0014722-002): 100%; remaining activity at 10 µM ([14]; batch_name=ASAP-0014722-002): 97%; remaining activity at 10 µM ([15]; batch_name=ASAP-0014722-002): 108%; remaining activity at 10 µM ([16]; batch_name=ASAP-0014722-002): 97%; efflux_ratio [17, 20]: 8.67; perc_recovery_a_to_b_inhibitor_mean ([17]; with inhibitor Cyclosporin A): 80.9%; perc_recovery_b_to_a_inhibitor_mean ([17]; with inhibitor Cyclosporin A): 84.1% |
| CNCc1cc(-c2cc3c(N[C@@H](c4ccc5c(c4)S(=O)(=O)CCC5)C(C)C)ncnc3[nH]2)co1 [ASAP-0011176] | 35.0 | 30.9 | 101.0 | 52 | -4 | 5 | 10 | 21.4 | 32.4 | > 30 | -9 | 20.0 | 34.7 | 10.0 | > 30 | 16.0 | > 30 | 0.15 ×10⁻⁶ cm/s and 0.137 ×10⁻⁶ cm/s | 64.8% and 63.4% | 60.4% and 68.7% | clint [1]: 54.0 µL/min/mg; perc_inhibition_top_conc [7]: 26.0%; remaining activity at 10 µM ([11]; batch_name=ASAP-0011176-002): 92%; remaining activity at 10 µM ([12]; batch_name=ASAP-0011176-002): 106%; remaining activity at 10 µM ([13]; batch_name=ASAP-0011176-002): 99%; remaining activity at 10 µM ([14]; batch_name=ASAP-0011176-002): 92%; remaining activity at 10 µM ([15]; batch_name=ASAP-0011176-002): 99%; remaining activity at 10 µM ([16]; batch_name=ASAP-0011176-002): 110%; papp_a_to_b_mean [17, 21]: 2.61 ×10⁻⁶ cm/s; papp_a_to_b_mean ([17]; In vitro MDR1-MDCKII permeability, A to B, no inhibitor): 0.0775 ×10⁻⁶ cm/s and 0.0947 ×10⁻⁶ cm/s; perc_recovery_a_to_b_mean [17, 22]: 78.9%; perc_recovery_a_to_b_inhibitor_mean ([17]; with inhibitor Cyclosporin A): 78.6%; perc_recovery_a_to_b_inhibitor_mean ([17]; with inhibitor Verapamil): 67.3%; perc_recovery_b_to_a_inhibitor_mean ([17]; with inhibitor Cyclosporin A): 83.0%; perc_recovery_b_to_a_inhibitor_mean ([17]; with inhibitor Verapamil): 62.0% |
| CC(C)[C@H](Nc1ncnc2[nH]c(-c3cnn(C)c3C#N)cc12)c1ccc2c(n1)OCCO2 [ASAP-0010715] |  |  |  | 18 | 11 | -15 | -3 | 106.0 | 6.54 | 11 | -7 | 23.7 | 29.2 | 33.0 | > 30 | 35.0 | > 30 | 5.98 ×10⁻⁶ cm/s | 70.1% and 79.9% | 76.7% | remaining activity at 10 µM ([11]; batch_name=ASAP-0010715-002): 102%; remaining activity at 10 µM ([12]; batch_name=ASAP-0010715-002): 115%; remaining activity at 10 µM ([13]; batch_name=ASAP-0010715-002): 70%; remaining activity at 10 µM ([14]; batch_name=ASAP-0010715-002): 86%; remaining activity at 10 µM ([16]; batch_name=ASAP-0010715-002): 125%; perc_recovery_a_to_b_inhibitor_mean ([17]; with inhibitor Cyclosporin A): 75.0%; perc_recovery_b_to_a_inhibitor_mean ([17]; with inhibitor Cyclosporin A): 76.7% |
| Cc1nn(C)cc1-c1cc2c(NC(c3ccc4c(c3)S(=O)(=O)CCC4)C(C)C)ncnc2[nH]1 (stereo not shown) [ASAP-0011446] | 4.0 | 8.3 | 104.0 |  |  |  | 6 |  |  |  |  |  |  |  |  |  |  |  | 69.7% | 63.5% | microsomal CLint ([1]; liver microsomes): 202 µL/min/mg; inhibition at 10 µM [2, 23]: 5%; inhibition at 10 µM [3, 23]: 1%; inhibition at 10 µM [4, 23]: -9%; inhibition at 10 µM [8, 23]: -16%; remaining activity at 10 µM ([11]; batch_name=ASAP-0011446-002): 106%; remaining activity at 10 µM ([12]; batch_name=ASAP-0011446-002): 110%; remaining activity at 10 µM ([13]; batch_name=ASAP-0011446-002): 102%; remaining activity at 10 µM ([14]; batch_name=ASAP-0011446-002): 105%; remaining activity at 10 µM ([15]; batch_name=ASAP-0011446-002): 93%; remaining activity at 10 µM ([16]; batch_name=ASAP-0011446-002): 108%; papp_a_to_b_mean [17, 21]: 4.36 ×10⁻⁶ cm/s; perc_recovery_a_to_b_mean [17, 22]: 77.0%; perc_recovery_a_to_b_inhibitor_mean ([17]; with inhibitor Verapamil): 87.7%; perc_recovery_b_to_a_inhibitor_mean ([17]; with inhibitor Verapamil): 93.0%; Papp A→B ([17]; dog, MDCK-MDR1, Papp (AB) MDR1/MDCKII, A to B): 4.4 ×10⁻⁶ cm/s |
